Values of other authors as cited in PMC6544043 (ACS infectious diseases, 2019).

Target: adenosine/guanosine preferring nucleoside ribohydrolase (AGNH) (Trichomonas vaginalis, UniProt A2EYV3)
Settings: read-out: inhibitor potency; cited from earlier work

**Q.** With `OC[C@H]1O[C@@H](n2cnc3c(NC4CCCC4)nc(Cl)nc32)[C@H](O)[C@@H]1O` [2-chloro-N(6)-cyclopenty-ladenosine] as the compound, how does the IC50 read?
**A.** 9 µM
